Laboratory results as given in patent publication US7465727B2, “(1,10B-dihydro-2-(aminoalkyl-phenyl)-5H-pyrazolo[1,5-c][1,3]Benzoxazin-5-yl)phenyl methanone derivatives as HIV viral replication inhibitors” (priority 2005, dated 2008).
Like-named read-outs stand apart in the source and are kept apart here.

Assays:
[1] = system: multi-drug resistant HIV-1 virus (HIV-1-MDR); experiment: microbe, parasite or virus in culture; type: cell-based; conditions: for Activity class for HIV-1-MDR test (pEC50 values): MT4-LTR-EGFP cells, three days incubation, GFP signal, average where more than one run
Method: (§1) The compounds were tested in a cellular assay using the MT4-LTR-EGFP cells for anti-viral activity. […] The cellular assay was performed according to the following procedure.
(§2) HIV- or mock-infected MT4-LTR-EGFP cells were incubated for three days in the presence of various concentrations of the inhibitor. Upon infection, the GFP reporter is activated by the viral tat protein. At the end of the incubation period, the GFP signal was measured. In the virus control samples (in the absence of any inhibitor) the maximal fluorescent signal was obtained. The inhibitory activity of the compound was monitored on the virus-infected cells and was expressed as EC50 and EC90. These values represent the amount of the compound required to protect 50% and 90%, respectively, of the cells from virus infection.

[2] = system: wild type laboratory HIV strain (HIV-1 strain LAI); experiment: microbe, parasite or virus in culture; type: cell-based
Method: as §1, §2

[3] = MT4-LTR-EGFP cells, three days incubation, GFP signal, average where more than one run

SMILES	EC50 ([1]; Human immunodeficiency virus 1, 72 h, read-out: Activity class for HIV-1-MDR test (pEC50 values) (converted)) [nM]	EC50 ([2]; Human immunodeficiency virus 1, 72 h, MT4-LTR-EGFP cells, three days incubation, GFP signal, average where more than one run, read-out: Activity class for HIV-1-LAI test (pEC50 values) (converted)) [nM]	Activity class for HIV-1-MDR test (pEC50 values) [1]	Activity class for HIV-1-LAI test (pEC50 values) [2, 3]	Activity class for HIV-1-LAI test (pEC50 values) [2]
CCN(CC)Cc1ccc(C2=NN3C(C(=O)c4ccc(C#N)cc4)Oc4ccccc4C3C2)cc1 (stereo not drawn) [Compound 1, 4-[4-(4-cyano-benzoyl)-1,9b-dihydro-5-oxa-3,3a-diaza-cyclopenta[a]naphthalen-2-yl]-N,N-diethyl-benzylamine]	8.71	19.1			
N#Cc1ccc(C(=O)C2Oc3ccccc3C3CC(c4ccc(CNCc5ccccc5)cc4)=NN23)cc1 (stereo not drawn) [Compound 2]			7.83	7.58	
CN(C)CCN(C)Cc1ccc(C2=NN3C(C(=O)c4ccc(C#N)cc4)Oc4ccccc4C3C2)cc1 (stereo not drawn) [Compound 4]			6.25	6.41	
COc1ccc(NCc2ccc(C3=NN4C(C(=O)c5ccc(C#N)cc5)Oc5ccccc5C4C3)cc2)cc1 (stereo not drawn) [Compound 5]			6.5		6.22
N#Cc1ccc(C(=O)C2Oc3ccccc3C3CC(c4ccc(CNCc5ccccn5)cc4)=NN23)cc1 (stereo not drawn) [Compound 6]			7.28	7.13	
N#Cc1ccc(C(=O)C2Oc3ccccc3C3CC(c4ccc(CNCCN5CCCC5)cc4)=NN23)cc1 (stereo not drawn) [Compound 7]			6.49	6.55	
COc1ccc(CN(C)Cc2ccc(C3=NN4C(C(=O)c5ccc(C#N)cc5)Oc5ccccc5C4C3)cc2)cc1 (stereo not drawn) [Compound 8]			7.85	7.81	
COc1ccc(CN(C)Cc2ccc(C3=NN4C(C(=O)c5ccc(C(C)(C)C)cc5)Oc5ccccc5C4C3)cc2)cc1 (stereo not drawn) [Compound 9]			7	7.28	
CCN(CC)Cc1ccc(C2=NN3C(C(=O)c4ccc(C(C)(C)C)cc4)Oc4ccccc4C3C2)cc1 (stereo not drawn) [Compound 11]			7.59	7.64	
CCN(CC)CCc1ccc(C2=NN3C(C(=O)c4ccc(C#N)cc4)Oc4ccccc4C3C2)cc1 (stereo not drawn) [Compound 12]			7.35	7.16	
CN(Cc1ccc(C2=NN3C(C(=O)c4ccc(C#N)cc4)Oc4ccccc4C3C2)cc1)C1CCCC1 (stereo not drawn) [Compound 13]			8.62	8.32	
COc1ccc(NCCCc2ccc(C3=NN4C(C(=O)c5ccc(C#N)cc5)Oc5ccccc5C4C3)cc2)cc1 (stereo not drawn) [Compound 14]			6.34		6.41
CN(C)CCN(C)CCCc1ccc(C2=NN3C(C(=O)c4ccc(C#N)cc4)Oc4ccccc4C3C2)cc1 (stereo not drawn) [Compound 15]			5.52	5.42	
CN(C)CCCc1ccc(C2=NN3C(C(=O)c4ccc(C#N)cc4)Oc4ccccc4C3C2)cc1 (stereo not drawn) [Compound 16]			5.51		5.6
N#Cc1ccc(C(=O)C2Oc3ccccc3C3CC(c4ccc(CCCNCc5ccccc5)cc4)=NN23)cc1 (stereo not drawn) [Compound 17]			5.37	5.56	
N#Cc1ccc(C(=O)C2Oc3ccccc3C3CC(c4ccc(CCCCNCc5ccccc5)cc4)=NN23)cc1 (stereo not drawn) [Compound 18]			5.47		5.47
CCN(CC)CCCCc1ccc(C2=NN3C(C(=O)c4ccc(C#N)cc4)Oc4ccccc4C3C2)cc1 (stereo not drawn) [Compound 19]			5.43	5.39	

SMILES	EC50 ([1]; Human immunodeficiency virus 1, 72 h, read-out: Activity class for HIV-1-MDR test (pEC50 values) (converted)) [nM]	EC50 ([2]; Human immunodeficiency virus 1, 72 h, MT4-LTR-EGFP cells, three days incubation, GFP signal, average where more than one run, read-out: Activity class for HIV-1-LAI test (pEC50 values) (converted)) [nM]	Activity class for HIV-1-MDR test (pEC50 values) [1]	Activity class for HIV-1-LAI test (pEC50 values) [2, 3]	Activity class for HIV-1-LAI test (pEC50 values) [2]
COc1ccc(NCCCCc2ccc(C3=NN4C(C(=O)c5ccc(C#N)cc5)Oc5ccccc5C4C3)cc2)cc1 (stereo not drawn) [Compound 20]			6.51		7.42
N#Cc1ccc(C(=O)C2Oc3ccccc3C3CC(c4ccc(CCCCNCc5ccncc5)cc4)=NN23)cc1 (stereo not drawn) [Compound 21]			5.2	5.23	
CN(C)CCN(C)CCCCc1ccc(C2=NN3C(C(=O)c4ccc(C#N)cc4)Oc4ccccc4C3C2)cc1 (stereo not drawn) [Compound 22]			5.47	5.52	
COc1ccc(CN(C)CCCCc2ccc(C3=NN4C(C(=O)c5ccc(C#N)cc5)Oc5ccccc5C4C3)cc2)cc1 (stereo not drawn) [Compound 23]			5.32	5.38	
COc1ccc(CN(C)CCCc2ccc(C3=NN4C(C(=O)c5ccc(C#N)cc5)Oc5ccccc5C4C3)cc2)cc1 (stereo not drawn) [Compound 25]			5.04	6.53	
N#Cc1ccc(C(=O)C2Oc3ccccc3C3CC(c4ccc(CCCCNCc5ccccn5)cc4)=NN23)cc1 (stereo not drawn) [Compound 26]			4.86	5.28	
CN(CCCCc1ccc(C2=NN3C(C(=O)c4ccc(C#N)cc4)Oc4ccccc4C3C2)cc1)C1CCCC1 (stereo not drawn) [Compound 27]			5.15	5.36	
COc1ccc(CN(C)Cc2ccc(C3=NN4C(C(=O)c5ccc(S(C)(=O)=O)cc5)Oc5ccccc5C4C3)cc2)cc1 (stereo not drawn) [Compound 29]			8.56	8.47	
CCN(CC)Cc1ccc(C2=NN3C(C(=O)c4ccc(S(C)(=O)=O)cc4)Oc4ccccc4C3C2)cc1 (stereo not drawn) [Compound 30]			7.95	7.9	
N#Cc1ccc(C(=O)C2Oc3ccccc3C3CC(c4ccc(CCCNCc5ccccn5)cc4)=NN23)cc1 (stereo not drawn) [Compound 31]			5.38	4.85	
COc1ccc(CN(C)CCc2ccc(C3=NN4C(C(=O)c5ccc(C#N)cc5)Oc5ccccc5C4C3)cc2)cc1 (stereo not drawn) [Compound 32]			6.72	7.08	
N#Cc1ccc(C(=O)C2Oc3ccccc3C3CC(c4ccc(CCNCc5ccccc5)cc4)=NN23)cc1 (stereo not drawn) [Compound 33]			6.07	6.35	
CN(C)CCN(C)CCc1ccc(C2=NN3C(C(=O)c4ccc(C#N)cc4)Oc4ccccc4C3C2)cc1 (stereo not drawn) [Compound 34]			6.12	6.25	
CN(CCCc1ccc(C2=NN3C(C(=O)c4ccc(C#N)cc4)Oc4ccccc4C3C2)cc1)C1CCCC1 (stereo not drawn) [Compound 35]			5.81	5.76	
CN(Cc1ccc(C2=NN3C(C(=O)c4ccc(C#N)cc4)Oc4ccccc4C3C2)cc1)Cc1ccc(N(C)C)cc1 (stereo not drawn) [Compound 36]			7.18	7.45	
CN(C)c1ccc(CNCc2ccc(C3=NN4C(C(=O)c5ccc(C#N)cc5)Oc5ccccc5C4C3)cc2)cc1 (stereo not drawn) [Compound 37]			6.31	6.12	
